Patent US20250340538A1, “IMIDAZOLONE DERIVATIVES AS INHIBITORS OF PROTEIN KINASES IN PARTICULAR DYRK1A, CLK1 AND/OR CLK4” (PERHA PHARMACEUTICALS, priority 2021, published 2025)
Counter-ions that a name gives are not always drawn.

Assays:
[1] = biological target: T1, CLK1 (Homo sapiens, UniProt P49759); experiment: Radiometric protein kinase assay (33PanQinase Activity Assay), CLK1; assay type: biochemical; settings: class by IC50 on CLK1, from dose-response curves; read-out: Potency Class CLK1
T1 construct: GST-fusion or His-tag (not specified per kinase); purchased ProQinase GmbH; host or cells: Sf9 insect cells or E. coli (not specified per kinase)
Experimental: Assays were performed by ProQinase GmbH (Engesserstr. 4, D-79108 Freiburg, Germany. www.proqinase.com). The IC50 profile of all compounds was determined using 12 protein kinases (CDK2/cyclin E, CK1ε, CLK1, 2, 3, 4, DYRK1A, 1B, 2, 3, 4, GSK3β).
(§1) The compounds were provided as […] in 100% DMSO. Prior to testing, the 1 μM stock solutions were subjected to a serial, semi-logarithmic dilution using 100% DMSO as a solvent. […] In the process, 90 μl H2O were added to each well of each compound dilution plate. To minimize potential precipitation, the H2O was added to each plate only a few minutes before the transfer of the compound solutions into the assay plates. The plate was shaken thoroughly, resulting in a compound dilution plate/10% DMSO.
(§2) For the assays (see below), 5 μL solution from each well of the compound dilution plates/10% DMSO were transferred into the assay plates. The final volume of the assay was 50 μL. All compounds were tested at 10 final assay concentrations in the range from 10 μM to 30 nM. The final DMSO concentration in the reaction cocktails was 1% in all cases.
(§3) All protein kinases provided by ProQinase were expressed in Sf9 insect cells or in E. coli as recombinant GST-fusion proteins or His-tagged proteins, either as full-length or enzymatically active fragments. All kinases were produced from human cDNAs and purified by either GSH-affinity chromatography or immobilized metal. Affinity tags were removed from a number of kinases during purification. The purity of the protein kinases was examined by SDS-PAGE/Coomassie staining, the identity was checked by mass spectroscopy.
(§4) A radiometric protein kinase assay (33PanQinase® Activity Assay) was used for measuring the kinase activity of the 12 protein kinases. All kinase assays were performed in 96-well FlashPlates™ from PerkinElmer (Boston, MA, USA) in a 50 μL reaction volume. The reaction cocktail was pipetted in four steps in the following order: • 25 μL of assay buffer (standard buffer/[γ-^33P]-ATP), • 10 μL of ATP solution (in H2O), • 5 μL of test compound (in 10% DMSO), • 10 μL of enzyme/substrate mixture.
(§5) The reaction cocktails were incubated at 30° C. for 60 minutes. The reaction was stopped with 50 μL of 2% (v/v) H3PO4, plates were aspirated and washed two times with 200 μL 0.9% (w/v) NaCl. Incorporation of ^33Pi was determined with a microplate scintillation counter (Microbeta, Wallac). The IC50 values for all compounds were calculated from the dose response curves
As a parameter for assay quality, the Z′-factor (Zhang et al., J. Biomol. Screen. 2: 67-73, 1999) for the low and high controls of each assay plate (n=8) was used. ProQinase's criterion for repetition of an assay plate is a Z′-factor below 0.4 (Iversen et al., J. Biomol. Screen. 3: 247-252, 2006).

[2] = biological target: T2, DYRK1A (Homo sapiens, UniProt Q13627); experiment: Radiometric protein kinase assay (33PanQinase Activity Assay), DYRK1A; assay type: biochemical; settings: for IC50: class by IC50 on DYRK1A, from dose-response curves, read-out: Potency Class DYRK1A; for Selectivity Class DYRK1A vs. CLK1: ratio of IC50 on CLK1 over IC50 on DYRK1A; for Selectivity Class DYRK1A vs. DYRK1B: ratio of IC50 on DYRK1B over IC50 on DYRK1A
T2 construct: GST-fusion or His-tag (not specified per kinase); purchased ProQinase GmbH; host or cells: Sf9 insect cells or E. coli (not specified per kinase)
Experimental: The IC50 profile of all compounds was determined using 12 protein kinases (CDK2/cyclin E, CK1ε, CLK1, 2, 3, 4, DYRK1A, 1B, 2, 3, 4, GSK3β).
as §1, §2, §3, §4, §5

T1 sequence (P49759 whole entry, the tested form may be a part): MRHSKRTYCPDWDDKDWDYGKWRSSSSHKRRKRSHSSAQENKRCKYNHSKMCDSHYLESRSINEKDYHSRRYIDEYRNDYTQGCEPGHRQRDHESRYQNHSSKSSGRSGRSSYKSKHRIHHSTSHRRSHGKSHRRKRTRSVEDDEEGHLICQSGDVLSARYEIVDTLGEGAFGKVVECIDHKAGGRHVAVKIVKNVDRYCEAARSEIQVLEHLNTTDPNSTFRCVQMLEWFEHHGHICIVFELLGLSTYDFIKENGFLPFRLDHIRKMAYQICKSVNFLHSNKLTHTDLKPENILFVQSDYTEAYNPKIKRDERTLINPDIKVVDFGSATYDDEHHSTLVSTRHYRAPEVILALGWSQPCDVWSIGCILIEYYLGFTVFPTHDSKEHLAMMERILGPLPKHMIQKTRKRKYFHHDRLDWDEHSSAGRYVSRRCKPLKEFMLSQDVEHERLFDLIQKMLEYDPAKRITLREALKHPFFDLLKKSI

| SMILES | IC50 [1] [nM] | IC50 [2] [nM] | Selectivity Class DYRK1A vs. CLK1 [2] | Selectivity Class DYRK1A vs. DYRK1B [2] |
| --- | --- | --- | --- | --- |
| O=C1NC(NCc2ccccc2C(F)(F)F)=N/C1=C\c1ccc2nccnc2c1 [Compound 22, (4Z)-4-(quinoxalin-6-ylmethylene)-2-[[2-(trifluoromethyl)phenyl]methylamino]-1H-imidazol-5-one] | > 50 | > 50 | III (ratio between 0.5 and 2 fold) | II (ratio between 2 and 10 fold) |
| O=C1NC(N[C@H]2c3ccccc3C[C@@H]2O)=N/C1=C\c1ccc2nccnc2c1 [Compound 23, (4Z)-2-[[(1S,2S)-2-hydroxyindan-1-yl]amino]-4-(quinoxalin-6-ylmethylene)-1H-imidazol-5-one] | > 50 | 10 to 25 | II (ratio between 2 and 10 fold) | II (ratio between 2 and 10 fold) |
| COC[C@H](NC1=N/C(=C\c2ccc3nccnc3c2)C(=O)N1)c1ccccc1 [Compound 26, (4Z)-2-[[(1R)-2-methoxy-1-phenyl-ethyl]amino]-4-(quinoxalin-6-ylmethylene)-1H-imidazol-5-one] | > 50 | > 50 | III (ratio between 0.5 and 2 fold) | II (ratio between 2 and 10 fold) |
| O=C1NC(NC[C@H](O)c2ccccc2)=N/C1=C\c1ccc2nccnc2c1 [Compound 27, (4Z)-2-[[(2R)-2-hydroxy-2-phenyl-ethyl]amino]-4-(quinoxalin-6-ylmethylene)-1H-imidazol-5-one] | > 50 | > 50 | III (ratio between 0.5 and 2 fold) | II (ratio between 2 and 10 fold) |
| NC[C@H](NC1=N/C(=C\c2ccc3nccnc3c2)C(=O)N1)c1ccccc1 [Compound 28, (4Z)-2-[[(1R)-2-amino-1-phenyl-ethyl]amino]-4-(quinoxalin-6-ylmethylene)-1H-imidazol-5-one dihydrochloride] | 25 to 50 | 25 to 50 | III (ratio between 0.5 and 2 fold) | II (ratio between 2 and 10 fold) |
| NC[C@@H](NC1=N/C(=C\c2ccc3nccnc3c2)C(=O)N1)c1ccccc1 [Compound 29, (4Z)-2-[[(1S)-2-Amino-1-phenyl-ethyl]amino]-4-(quinoxalin-6-ylmethylene)-1H-imidazol-5-one dihydrochloride] | > 50 | 25 to 50 | III (ratio between 0.5 and 2 fold) | II (ratio between 2 and 10 fold) |
| Cc1cnc(CNC2=N/C(=C\c3ccc4nccnc4c3)C(=O)N2)cn1 [Compound 30, (4Z)-2-[(5-methylpyrazin-2-yl)methylamino]-4-(quinoxalin-6-ylmethylene)-1H-imidazol-5-one] | > 50 | > 50 | IV (ratio between 0.1 and 0.5 fold) | II (ratio between 2 and 10 fold) |
| Cc1csc(CNC2=N/C(=C\c3ccc4nccnc4c3)C(=O)N2)n1 [Compound 31, (4Z)-2-[(4-methylthiazol-2-yl)methylamino]-4-(quinoxalin-6-ylmethylene)-1H-imidazol-5-one] | > 50 | > 50 | III (ratio between 0.5 and 2 fold) | III (ratio between 0.5 and 2 fold) |
| O=C1NC(NCC2CCOCC2)=N/C1=C\c1ccc2nccnc2c1 [Compound 32, (4Z)-4-(quinoxalin-6-ylmethylene)-2-(tetrahydropyran-4-ylmethylamino)-1H-imidazol-5-one] | > 50 | > 50 | III (ratio between 0.5 and 2 fold) | II (ratio between 2 and 10 fold) |
| CN1CCN(c2ccc(NC3=N/C(=C\c4ccc5nccnc5c4)C(=O)N3)cc2)CC1 [Compound 33, (4Z)-2-[4-(4-Methylpiperazin-1-yl)anilino]-4-(quinoxalin-6-ylmethylene)-1H-imidazol-5-one] | > 50 | 25 to 50 | II (ratio between 2 and 10 fold) | II (ratio between 2 and 10 fold) |
| Cn1ccc(NC2=N/C(=C\c3ccc4nccnc4c3)C(=O)N2)n1 [Compound 34, (4Z)-2-[(1-methylpyrazol-3-yl)amino]-4-(quinoxalin-6-ylmethylene)-1H-imidazol-5-one] | > 50 | > 50 | III (ratio between 0.5 and 2 fold) | II (ratio between 2 and 10 fold) |
| O=C1NC(Nc2ccccn2)=N/C1=C\c1ccc2nccnc2c1 [Compound 35, (4Z)-2-(2-pyridylamino)-4-(quinoxalin-6-ylmethylene)-1H-imidazol-5-one] | > 50 | > 50 | II (ratio between 2 and 10 fold) | II (ratio between 2 and 10 fold) |
| O=C1NC(N[C@@H]2CCOC2)=N/C1=C\c1ccc2nccnc2c1 [Compound 37, (4Z)-4-(quinoxalin-6-ylmethylene)-2-[[(3R)-tetrahydrofuran-3-yl]amino]-1H-imidazol-5-one] | > 50 | > 50 | III (ratio between 0.5 and 2 fold) | II (ratio between 2 and 10 fold) |
| O=C1NC(N[C@H]2CCCOC2)=N/C1=C\c1ccc2nccnc2c1 [Compound 38, (4Z)-4-(quinoxalin-6-ylmethylene)-2-[[(3S)-tetrahydropyran-3-yl]amino]-1H-imidazol-5-one] | > 50 | > 50 | III (ratio between 0.5 and 2 fold) | II (ratio between 2 and 10 fold) |
| O=C1NC(N[C@@H]2CCCOC2)=N/C1=C\c1ccc2nccnc2c1 [Compound 39, (4Z)-4-(quinoxalin-6-ylmethylene)-2-[[(3R)-tetrahydropyran-3-yl]amino]-1H-imidazol-5-one] | > 50 | 25 to 50 | III (ratio between 0.5 and 2 fold) | II (ratio between 2 and 10 fold) |
| O=C1NC(N[C@@H]2COCC[C@H]2O)=N/C1=C\c1ccc2nccnc2c1 [Compound 40, (4Z)-2-[[(3R,4R)-4-Hydroxytetrahydropyran-3-yl]amino]-4-(quinoxalin-6-ylmethylene)-1H-imidazol-5-one] | > 50 | > 50 | III (ratio between 0.5 and 2 fold) | II (ratio between 2 and 10 fold) |
| O=C1NC(NC2COCCOC2)=N/C1=C\c1ccc2nccnc2c1 [Compound 42, (4Z)-2-(1,4-dioxepan-6-ylamino)-4-(quinoxalin-6-ylmethylene)-1H-imidazol-5-one] | > 50 | > 50 | III (ratio between 0.5 and 2 fold) | II (ratio between 2 and 10 fold) |
| O=C1NC(NC2CCCCC2)=N/C1=C\c1ccc2ncccc2c1 [Compound 43, (4Z)-2-(Cyclohexylamino)-4-(6-quinolylmethylene)-1H-imidazol-5-one] | > 50 | > 50 | III (ratio between 0.5 and 2 fold) | II (ratio between 2 and 10 fold) |
| O=C1NC(NC2CCCCCC2)=N/C1=C\c1ccc2ncccc2c1 [Compound 44, (4Z)-2-(cycloheptylamino)-4-(6-quinolylmethylene)-1H-imidazol-5-one] | > 50 | > 50 | III (ratio between 0.5 and 2 fold) | II (ratio between 2 and 10 fold) |
